# Legend:
# [1] = target: human D3 dopamine receptor (Homo sapiens (Human), UniProt P35462); assay: Radioligand binding (125I-IABN competition), D3; details: for Ki: 125I-IABN competition, HEK cell membranes expressing human D3; for D2/D3 (D3 selectivity ratio, D2 Ki/D3 Ki): calculated D2 Ki/D3 Ki
# Procedure: (§1) The affinities of the target compounds were determined using radioligand binding experiments. […] Competition curves were modeled for a single site. Data from competition dose-response curves were analyzed using Tablecurve program (Jandel). IC50 values were converted to equilibrium dissociation constants (Ki values) using the Cheng and Prusoff correction.
# [2] = target: human D2-long dopamine receptor (Homo sapiens (Human), UniProt P14416); assay: Radioligand binding (125I-IABN competition), D2; details: HEK cell membranes expressing human D2-long
# Procedure: as §1
# Chain of human D3 dopamine receptor (P35462 whole entry): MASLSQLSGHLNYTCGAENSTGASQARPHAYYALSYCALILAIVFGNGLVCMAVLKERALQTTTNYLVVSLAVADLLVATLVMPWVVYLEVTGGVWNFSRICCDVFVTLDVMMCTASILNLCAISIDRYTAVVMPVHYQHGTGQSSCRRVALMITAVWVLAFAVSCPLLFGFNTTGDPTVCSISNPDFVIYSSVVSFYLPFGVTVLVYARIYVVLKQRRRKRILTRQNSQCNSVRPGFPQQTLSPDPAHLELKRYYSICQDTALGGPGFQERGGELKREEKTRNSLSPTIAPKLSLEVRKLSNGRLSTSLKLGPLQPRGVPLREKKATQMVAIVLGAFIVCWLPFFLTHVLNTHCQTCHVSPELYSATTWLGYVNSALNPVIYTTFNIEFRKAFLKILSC
# Chain of human D2-long dopamine receptor (P14416 whole entry): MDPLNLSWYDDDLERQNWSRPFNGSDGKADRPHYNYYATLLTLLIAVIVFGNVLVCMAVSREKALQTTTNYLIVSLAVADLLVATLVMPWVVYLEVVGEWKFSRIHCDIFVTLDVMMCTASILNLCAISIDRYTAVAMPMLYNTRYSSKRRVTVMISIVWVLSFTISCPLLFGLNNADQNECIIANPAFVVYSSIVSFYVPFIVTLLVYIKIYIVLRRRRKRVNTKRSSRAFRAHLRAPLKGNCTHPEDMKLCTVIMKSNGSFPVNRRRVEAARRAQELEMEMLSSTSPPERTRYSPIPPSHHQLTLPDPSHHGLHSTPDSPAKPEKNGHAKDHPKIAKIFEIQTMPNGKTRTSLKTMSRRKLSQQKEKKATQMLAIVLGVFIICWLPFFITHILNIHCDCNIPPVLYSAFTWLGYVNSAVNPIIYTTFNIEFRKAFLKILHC
SMILES,Ki [1],"D2/D3 (D3 selectivity ratio, D2 Ki/D3 Ki) [1]",Ki [2]
"O=C(NCCCCN1CCN(c2cc(C(F)(F)F)nc3ccccc23)CC1)N1CCC(c2ccccc2)CC1 [Compound 100, 4-Phenyl-N-(4-(4-(2-(trifluoromethyl)quinolin-4-yl)piperazin-1-yl)butyl)piperidine-1-carboxamide]",5320 ± 2220 nM,>18,> 100000 nM
"CC(C)(C)c1nc(N2CCN(CCCCNC(=O)N3CCN(c4ccc(Cl)cc4)CC3)CC2)cc(C(F)(F)F)n1 [Compound 57, N-(4-(4-(2-(tert-Butyl)-6-(trifluoromethyl)pyrimidin-4-yl)piperazin-1-yl)butyl)-4-(4-chlorophenyl)piperazine-1-carboxamide]",35.5 ± 7.2 nM,18,644 ± 6.6 nM
"COc1ccc(N2CCN(C(=O)NCCCCN3CCN(c4cc(C(F)(F)F)nc(C(C)(C)C)n4)CC3)CC2)cc1 [Compound 21, N-(4-(4-(2-(tert-Butyl)-6-(trifluoromethyl)pyrimidin-4-yl)piperazin-1-yl)butyl)-4-(4-methoxyphenyl)piperazine-1-carboxamide]",11.6 ± 0.9 nM,48,557 ± 79.5 nM
"CC(C)(C)c1nc(N2CCN(CCCCNC(=O)N3CCN(C(c4ccccc4)c4ccc(Cl)cc4)CC3)CC2)cc(C(F)(F)F)n1 (centres unmarked) [Compound 73, N-(4-(4-(2-(tert-Butyl)-6-(trifluoromethyl)pyrimidin-4-yl)piperazin-1-yl)butyl)-4-((4-chlorophenyl)(phenyl)methyl)piperazine-1-carboxamide]",130 ± 13 nM,8,990 ± 192 nM
"CC(C)(C)c1cc(N2CCN(CCCCNC(=O)N3CCN(c4ccccc4)CC3)CC2)cc(C(C)(C)C)c1 [Compound 86, N-(4-(4-(3,5-Di-tert-butylphenyl)piperazin-1-yl)butyl)-4-phenylpiperazine-1-carboxamide]",110 ± 11.6 nM,17,1850 ± 197 nM
"Cc1cc(N2CCN(CCCCNC(=O)C3CCN(c4ccc(C(F)(F)F)cn4)CC3)CC2)nc(C(C)(C)C)n1 [Compound 107, N-(4-(4-(2-(tert-Butyl)-6-methylpyrimidin-4-yl)piperazin-1-yl)butyl)-1-(5-(trifluoromethyl)pyridin-2-yl)piperidine-4-carboxamide]",30.6 ± 7.4 nM,32,970 ± 137 nM
"CC(C)(C)c1nc(N2CCN(CCCCNC(=O)N3CCN(c4ccc(C#N)cc4)CC3)CC2)cc(C(F)(F)F)n1 [Compound 59, N-(4-(4-(2-(tert-Butyl)-6-(trifluoromethyl)pyrimidin-4-yl)piperazin-1-yl)butyl)-4-(4-cyanophenyl)piperazine-1-carboxamide]",19.4 ± 4.1 nM,18,342 ± 22 nM
"CC(C)(C)c1nc(N2CCN(CCCCNC(=O)N3CCN(CC=Cc4ccccc4)CC3)CC2)cc(C(F)(F)F)n1 [Compound 74, N-(4-(4-(2-(tert-Butyl)-6-(trifluoromethyl)pyrimidin-4-yl)piperazin-1-yl)butyl)-4-cinnamylpiperazine-1-carboxamide]",66.8 ± 16.3 nM,9,585 ± 72.7 nM
"O=C(NCCCCN1CCN(c2ccnc3cc(C(F)(F)F)ccc23)CC1)c1cn2ccccc2n1 [Compound 124, N-(4-(4-(7-(Trifluoromethyl)quinolin-4-yl)piperazin-1-yl)butyl)imidazo[1,2-a]pyridine-2-carboxamide]",98.7 ± 24.3 nM,–,4980 ± 843 nM
"Cc1nc(N2CCN(CCCCNC(=O)N3CCc4[nH]c5ccc(Cl)cc5c4C3)CC2)cc(C(C)(C)C)n1 [Compound 95, N-(4-(4-(6-(tert-Butyl)-2-methylpyrimidin-4-yl)piperazin-1-yl)butyl)-8-chloro-3,4-dihydro-1H-pyrido[4,3-b]indole-2(5H)-carboxamide]",215 ± 45.5 nM,26,5560 ± 1340 nM
"CC(C)(C)c1nc(N2CCN(CCCCNC(=O)N3CCc4ccccc4C3)CC2)cc(C(F)(F)F)n1 [Compound 41, N-(4-(4-(2-(tert-Butyl)-6-(trifluoromethyl)pyrimidin-4-yl)piperazin-1-yl)butyl)-3,4-dihydroisoquinoline-2(1H)-carboxamide]",22.9 ± 5 nM,21,490 ± 70 nM
"CC(C)(C)c1nc(N2CCN(CCCCNC(=O)N3CCC(Cc4ccccc4)CC3)CC2)cc(C(F)(F)F)n1 [Compound 50, 4-Benzyl-N-(4-(4-(2-(tert-butyl)-6-(trifluoromethyl)pyrimidin-4-yl)piperazin-1-yl)butyl)piperidine-1-carboxamide]",18.4 ± 2.6 nM,33,603 ± 104 nM
"CC(C)(C)c1nc(N2CCN(CCCCNC(=O)N3CCN(CC4CC4)CC3)CC2)cc(C(F)(F)F)n1 [Compound 68, N-(4-(4-(2-(tert-Butyl)-6-(trifluoromethyl)pyrimidin-4-yl)piperazin-1-yl)butyl)-4-(cyclopropylmethyl)piperazine-1-carboxamide]",13.8 ± 2.4 nM,13,184 ± 46.6 nM
"CC(C)(C)c1nc(N2CCN(CCCCNC(=O)N3CCc4ccccc4CC3)CC2)cc(C(F)(F)F)n1 [Compound 42, N-(4-(4-(2-(tert-Butyl)-6-(trifluoromethyl)pyrimidin-4-yl)piperazin-1-yl)butyl)-4,5-dihydro-1H-benzo[d]azepine-3(2H)-carboxamide]",2.3 ± 0.3 nM,281,646 ± 1.5 nM
"CC(C)(C)c1nc(N2CCN(CCCCNC(=O)N3CCCc4ccccc43)CC2)cc(C(F)(F)F)n1 [Compound 70, N-(4-(4-(2-(tert-Butyl)-6-(trifluoromethyl)pyrimidin-4-yl)piperazin-1-yl)butyl)-3,4-dihydroquinoline-1(2H)-carboxamide]",33.5 ± 8 nM,6,215 ± 36.3 nM
"CC(C)(C)c1nc(N2CCN(CCCCNC(=O)N3CCc4[nH]c5ccccc5c4C3)CC2)cc(C(F)(F)F)n1 [Compound 89, N-(4-(4-(2-(tert-Butyl)-6-(trifluoromethyl)pyrimidin-4-yl)piperazin-1-yl)butyl)-3,4-dihydro-1H-pyrido[4,3-b]indole-2(5H)-carboxamide]",110 ± 21.6 nM,11,1180 ± 180 nM
"CC(C)(C)c1nc(N2CCN(CCCCNC(=O)N3CCCC(c4ccccc4)CC3)CC2)cc(C(F)(F)F)n1 (centres unmarked) [Compound 82, N-(4-(4-(2-(tert-Butyl)-6-(trifluoromethyl)pyrimidin-4-yl)piperazin-1-yl)butyl)-4-phenylazepane-1-carboxamide]",129 ± 21.9 nM,5,668 ± 135 nM

# More lines, in order of falling Ki [1], values ahead:
Ki [1],"D2/D3 (D3 selectivity ratio, D2 Ki/D3 Ki) [1]",Ki [2],SMILES
323 ± 75 nM,11,3560 ± 1950 nM,"O=C(NCCCCN1CCN(c2ccnc3ccccc23)CC1)c1nc2ccccn2c1Cl [Compound 129, 3-Chloro-N-(4-(4-(quinolin-4-yl)piperazin-1-yl)butyl)imidazo[1,2-a]pyridine-2-carboxamide]"
200 ± 47.6 nM,6,1210 ± 211 nM,"CC(C)(C)c1nc(N2CCN(CCCCNC(=O)N3CCc4[nH]c5ccc(Cl)cc5c4C3)CC2)cc(C(F)(F)F)n1 [Compound 91, N-(4-(4-(2-(tert-Butyl)-6-(trifluoromethyl)pyrimidin-4-yl)piperazin-1-yl)butyl)-8-chloro-3,4-dihydro-1H-pyrido[4,3-b]indole-2(5H)-carboxamide]"
87.9 ± 22.8 nM,32,2790 ± 942 nM,"O=C(NCCCCN1CCN(c2ccnc3cc(Cl)ccc23)CC1)N1CCC(c2ccccc2)CC1 [Compound 85, N-(4-(4-(7-Chloroquinolin-4-yl)piperazin-1-yl)butyl)-4-phenylpiperidine-1-carboxamide]"
21.2 ± 1.4 nM,42,894 ± 200 nM,"CC(C)(C)c1nc(N2CCN(CCCCNC(=O)N3CCC(c4ccc(Cl)cc4)CC3)CC2)cc(C(F)(F)F)n1 [Compound 16, N-(4-(4-(2-(tert-Butyl)-6-(trifluoromethyl)pyrimidin-4-yl)piperazin-1-yl)butyl)-4-(4-chlorophenyl)piperidine-1-carboxamide]"
19.2 ± 3.6 nM,19,359 ± 45.8 nM,"CC(C)(C)c1nc(N2CCN(CCCCNC(=O)N3CCN(c4ccnc5cc(Cl)ccc45)CC3)CC2)cc(C(F)(F)F)n1 [Compound 63, N-(4-(4-(2-(tert-Butyl)-6-(trifluoromethyl)pyrimidin-4-yl)piperazin-1-yl)butyl)-4-(7-chloroquinolin-4-yl)piperazine-1-carboxamide]"
18.8 ± 3.5 nM,19,361 nM,"CC(C)(C)c1cc(N2CCN(CCCCNC(=O)c3cn4ccccc4n3)CC2)nc(C(C)(C)C)n1 [Compound 122, N-(4-(4-(2,6-Di-tert-butylpyrimidin-4-yl)piperazin-1-yl)butyl)imidazo[1,2-a]pyridine-2-carboxamide]"
12.8 ± 2.3 nM,26,331 ± 51.9 nM,"CC(C)(C)c1nc(N2CCN(CCCCNC(=O)N3CCN(C4CC4)CC3)CC2)cc(C(F)(F)F)n1 [Compound 35, N-(4-(4-(2-(tert-Butyl)-6-(trifluoromethyl)pyrimidin-4-yl)piperazin-1-yl)butyl)-4-cyclopropylpiperazine-1-carboxamide]"
3.5 ± 0.7 nM,173,605 ± 62 nM,"CC(C)(C)c1nc(N2CCN(CCCCNC(=O)N3CC(c4ccncc4)C3)CC2)cc(C(F)(F)F)n1 [Compound 38, N-(4-(4-(2-(tert-Butyl)-6-(trifluoromethyl)pyrimidin-4-yl)piperazin-1-yl)butyl)-3-(pyridin-4-yl)azetidine-1-carboxamide]"
